Key:
Spodoptera litura = test: Pesticidal test against Spodoptera litura (cabbage leaf dip); type: in vivo; details: foliar, 144 h, 2-stage larvae, examined after 6 days, 25° C., read-out: pesticidal rate; for pest or weed control at 1 ppm: concentration 1 ppm
Method: (§1) Pesticidal Test against Spodoptera litura A piece of a cabbage leaf was immersed for 30 seconds in a chemical solution in which a test compound had been prepared at a predetermined concentration, and air-dried, and then put into a 7 cm polyethylene cup having a filter paper laid on the bottom thereof, and 2-stage larvae of Spodoptera litura were released. They were left to stand in a thermostatic chamber at 25° C., and the numbers of the living pests and the dead pests were examined after 6 days. The test was carried out with five larvae per group in two replicates. Further, the following compound (A) disclosed in the pamphlet of International Publication WO 2005/073165 was used as a comparative compound.

Plutella xylostella = test: Pesticidal test against Plutella xylostella (cabbage leaf dip); type: in vivo; details: foliar, 144 h, 2-stage larvae, examined after 6 days, 25° C., read-out: pesticidal rate; for pest or weed control at 1 ppm: concentration 1 ppm; for pest or weed control at 10 ppm: concentration 10 ppm
Method: as §1, with “Plutella xylostella” for “Spodoptera litura”, “above” for “following”, “(A)” for “(A) disclosed in the pamphlet of International Publication WO 2005/073165”

Compound	pest or weed control at 1 ppm (Spodoptera litura)	pest or weed control at 1 ppm (Plutella xylostella)	pest or weed control at 10 ppm (Spodoptera litura; concentration 10 ppm)	pest or weed control at 10 ppm (Plutella xylostella)
O=C(Nc1c(C(F)(F)F)cc(C(F)(C(F)(F)F)C(F)(F)F)cc1C(F)(F)F)c1cccc(NC(=O)c2cccnc2Cl)c1 [6-840]	≥ 70%	≥ 70%	–	–
O=C(Nc1cccc(C(=O)Nc2c(I)cc(C(F)(C(F)(F)F)C(F)(F)F)cc2C(F)(F)F)c1F)c1ccc(F)cc1Cl [6-1755]	≥ 70%	≥ 70%	–	–
O=C(Nc1cccc(C(=O)Nc2c(Cl)cc(C(F)(C(F)(F)F)C(F)(F)F)cc2Br)c1F)c1ccccc1 [6-5902]	≥ 70%	–	–	–
CS(=O)(=O)c1ccc(C(=O)Nc2cccc(C(=O)Nc3c(I)cc(C(F)(C(F)(F)F)C(F)(F)F)cc3C(F)(F)F)c2)c(Cl)c1 [6-5912]	≥ 70%	≥ 70%	–	–
O=C(Nc1cccc(C(=O)Nc2c(Br)cc(C(F)(F)C(F)(F)F)cc2C(F)(F)F)c1)c1ccccc1 [6-5913, 3-benzamide-N-(2-bromo-4-(perfluoroethyl)-6-(trifluoromethyl)phenyl)benzamide]	–	–	≥ 70%	≥ 70%
CN(C(=O)c1ccccc1)c1cccc(C(=O)Nc2c(Br)cc(C(F)(C(F)(F)F)C(F)(F)C(F)(F)F)cc2Br)c1 (stereo not drawn) [7-38]	≥ 70%	≥ 70%	–	–
CN(C(=O)c1cccc(C#N)c1)c1cccc(C(=O)Nc2c(Br)cc(C(F)(C(F)(F)F)C(F)(F)C(F)(F)F)cc2Br)c1 (stereo not drawn) [7-45]	≥ 70%	≥ 70%	–	–
CN(C(=O)c1ccc(C#N)cc1)c1cccc(C(=O)Nc2c(Br)cc(C(F)(C(F)(F)F)C(F)(F)C(F)(F)F)cc2Br)c1 (stereo not drawn) [7-46]	≥ 70%	≥ 70%	–	–
CN(C(=O)c1ccc(Cl)nc1)c1cccc(C(=O)Nc2c(Br)cc(C(F)(C(F)(F)F)C(F)(F)C(F)(F)F)cc2Br)c1 (stereo not drawn) [7-60]	≥ 70%	≥ 70%	–	–
CN(C(=O)c1ccccc1)c1cccc(C(=O)Nc2c(I)cc(C(F)(C(F)(F)F)C(F)(F)C(F)(F)F)cc2I)c1 (stereo not drawn) [7-71]	≥ 70%	≥ 70%	–	–
CN(C(=O)c1ccccc1F)c1cccc(C(=O)Nc2c(I)cc(C(F)(C(F)(F)F)C(F)(F)C(F)(F)F)cc2I)c1 (stereo not drawn) [7-72]	≥ 70%	≥ 70%	–	–
CN(C(=O)c1cccc(C#N)c1)c1cccc(C(=O)Nc2c(I)cc(C(F)(C(F)(F)F)C(F)(F)C(F)(F)F)cc2I)c1 (stereo not drawn) [7-78]	≥ 70%	≥ 70%	–	–
CN(C(=O)c1ccc(C#N)cc1)c1cccc(C(=O)Nc2c(I)cc(C(F)(C(F)(F)F)C(F)(F)C(F)(F)F)cc2I)c1 (stereo not drawn) [7-79]	≥ 70%	≥ 70%	–	–
CN(C(=O)c1c(F)cccc1F)c1cccc(C(=O)Nc2c(I)cc(C(F)(C(F)(F)F)C(F)(F)C(F)(F)F)cc2I)c1 (stereo not drawn) [7-80]	≥ 70%	≥ 70%	–	–
CN(C(=O)c1ccc(Cl)nc1)c1cccc(C(=O)Nc2c(I)cc(C(F)(C(F)(F)F)C(F)(F)C(F)(F)F)cc2I)c1 (stereo not drawn) [7-93]	≥ 70%	≥ 70%	–	–
CN(C(=O)c1ccc(C#N)cc1)c1cccc(C(=O)Nc2c(Cl)cc(C(F)(C(F)(F)F)C(F)(F)F)cc2C(F)(F)F)c1 [7-132]	≥ 70%	≥ 70%	–	–
CN(C(=O)c1cccnc1Cl)c1cccc(C(=O)Nc2c(Cl)cc(C(F)(C(F)(F)F)C(F)(F)F)cc2C(F)(F)F)c1 [7-147]	≥ 70%	≥ 70%	–	–
CN(C(=O)c1ccccc1F)c1cccc(C(=O)Nc2c(Br)cc(C(F)(C(F)(F)F)C(F)(F)F)cc2C(F)(F)F)c1 [7-269]	≥ 70%	–	–	≥ 70%
CN(C(=O)c1cccc(F)c1)c1cccc(C(=O)Nc2c(Br)cc(C(F)(C(F)(F)F)C(F)(F)F)cc2C(F)(F)F)c1 [7-270]	≥ 70%	–	–	≥ 70%
CN(C(=O)c1ccc(F)cc1)c1cccc(C(=O)Nc2c(Br)cc(C(F)(C(F)(F)F)C(F)(F)F)cc2C(F)(F)F)c1 [7-271]	≥ 70%	≥ 70%	–	–
CN(C(=O)c1c(F)cccc1F)c1cccc(C(=O)Nc2c(Br)cc(C(F)(C(F)(F)F)C(F)(F)F)cc2C(F)(F)F)c1 [7-290]	≥ 70%	≥ 70%	–	–
CN(C(=O)c1cc(C#N)cc(C#N)c1)c1cccc(C(=O)Nc2c(Br)cc(C(F)(C(F)(F)F)C(F)(F)F)cc2C(F)(F)F)c1 [7-299]	≥ 70%	≥ 70%	–	–
CN(C(=O)c1ccc(C#N)cc1F)c1cccc(C(=O)Nc2c(Br)cc(C(F)(C(F)(F)F)C(F)(F)F)cc2C(F)(F)F)c1 [7-300]	≥ 70%	≥ 70%	–	–

Source: patent publication US8686044B2, “Amide derivative, pest control agent containing the amide derivative, and use of the amide derivative” (Mitsui Chemicals Agro, Inc., priority 2008, dated 2014)
